Experimental data as given in patent US10376553B2, “Pharmaceutical composition for preventing and treating chronic obstructive lung disease containing, as active ingredient, Magnoliae flos extract, fraction, or active fraction thereof” (KOREA RESEARCH INSTITUTE OF BIOSCIENCE AND BIOTECHNOLOGY, priority 2015, dated 2019).

How the values were obtained:
TNF-α = TNF-α level in BALF of the COPD model (ELISA); type: in vivo, C57BL/6N mice; details: vs COPD-induced group; for TNF-α inhibition rate (%): BALF
Protocol: (§1) Cytokines were measured in the cell supernatant obtained in <Test Example 6-3> above by the following method. Specifically, the levels of IL-6 (R & D System, USA) and TNF-α (BD Bioscience, USA) in the separated BALF were measured by enzyme-linked immuno-sorbent assay (ELISA). Each cytokine analysis was carried out according to the manufacturer's test method.

reactive oxygen species = experiment: Production of active oxygen species in BALF of the COPD model (DCF-DA); type: in vivo, C57BL/6N mice; details: for Active oxygen inhibition rate (%) / production of active oxygen species (in words): vs COPD-induced group; for production of active oxygen species (in words): 15 and 30 mg/kg
Protocol: Production of active oxygen species in the bronchoalveolar lavage fluid obtained in <Test Example 6-3> above was confirmed by the following method.
Specifically, the separated BALF (200 μL) was treated to the final concentration of 20 μM of DCF-DA (dihydrodichlorofluorescein diacetate, Sigma-Aldrich, USA), followed by culturing for 30 minutes and measurement using Fluorescence (Molecular Device, USA). The inhibition rate was calculated by Equation 3 above.

MUC5AC protein = experiment: Inhibition of MUC5AC protein production (immunoassay) by the compounds; type: cell-based, human; details: for Inhibition rate (%): MUC5AC secretion, TNF-α 20 ng/mL; for production of MUC5AC (in words): vs TNF-α treated group = 100%
Protocol: For immunoassay of the resulting MUC5AC, the supernatant (50 uL) recovered was dispensed on to a 96-well plate and dried in a thermostat set at 50° C. It was washed with PBS supplemented with 1% BSA and reacted with an MUC5AC antibody (abcam, USA) at room temperature for 1 hour. A secondary antibody was dispensed thereto for reaction for 1 hour. It was washed again and then reacted with a 3,3′,5,5′-tetramethylbenzidine peroxide solution for 20 minutes. After the reaction was stopped with a sulfuric acid solution, the degree of color development was measured at 450 nm.
As a result, as shown in the following Table 6, the amount of MUCSAC secretion increased in the group treated with TNF-α.

IL-6 = IL-6 level in BALF of the COPD model (ELISA); type: in vivo, C57BL/6N mice; details: vs COPD-induced group; for IL-6 inhibition rate (%): BALF
Protocol: as §1

[1] = system: inflammatory cells in the bronchoalveolar lavage fluid; experiment: Inflammatory cells in bronchoalveolar lavage fluid of the COPD mouse model (cigarette smoke + LPS); type: in vivo, C57BL/6N mice; details: BALF, vs COPD-induced group
Protocol: Six-week-old male SPF (specific pathogen-free) C57BL/6N mice (22 to 24 g) were supplied by Koatech (Korea). These animals were fed with a sufficient amount of solid feed (no antibiotics, Samyang Feed Co.) and water until the day of the experiment. They were allowed to adapt for 1 week in a light-dark cycle environment at a temperature of 22±2° C. and a humidity of 55±15%, and then subjected to the experiment.
The animal model was exposed to cigarette smoke to induce chronic obstructive pulmonary disease. 3R4F Kentuchy Reference Cigarettes as standard cigarettes for use to generate cigarette smoke were supplied by University of California (USA). The standard cigarettes contain 9.4 mg of tar, 11 mg of total particle matter (TPM), and 12 mg of carbon monoxide per 1 cigarette. The standard cigarettes were used after harmonization for 48 hours to 72 hours at a temperature of 22±1° C. and a humidity of 60±2%. Further, Cigarette Smoke Generator manufactured by Korea BioLink (Korea) was used for exposure to cigarette smoke. Cigarette smoke was inhaled for 1 hour (8 pcs/hour) for 7 days from 1 hour after oral administration of a sample. 10 μg of LPS (lipopolysaccharide) in PBS 50 μL was injected intranasally to each mouse on the 4th day of the experiment after the mouse was anesthetized with zoletyl 1 hour before the exposure to cigarette smoke. The smoking condition was 8 puffs per 1 standard cigarette (volume: 45 mL, duration: 2 seconds, and interval: 1 time/min).
The active fraction of Magnoliae flos (15, 30 mg/kg) and roflumilast (10 mg/kg) as therapeutic substances were dissolved in 0.5% sodium carboxymethyl cellulose and were orally administered 1 hour before the exposure to cigarette smoke.
The experimental groups were divided into (i) normal control (NC) group; (ii) cigarette smoke+LPS exposure group (COPD); (iii) experimental group administered with roflumilast (ROF) (10 mg/kg, p.o) 1 hour before the exposure to cigarette smoke+LPS; and (iv) experimental group administered with the active fraction of Magnoliae flos (15, 30 mg/kg, p.o; Magnoliae flos 15 and Magnoliae flos 30) 1 hour before the exposure to cigarette smoke+LPS. […] Then, they were administered in the same manner as above.
The bronchial alveolar lavage fluid was separated from the animal model treated with the active fraction and the compounds of Magnoliae flos in <Test Example 6-2> above in the following manner, and the number of inflammatory cells was measured.
Specifically, a mouse sonde was inserted into the bronchial tube, a 1 mL syringe containing 0.7 mL of DPBS (Dulbecco's Phosphate-Buffered Saline) was connected thereto, and DPBS was injected into the lung. The injected DPBS was recovered, and this procedure was repeated twice. The bronchoalveolar lavage fluid separated by DPBS was centrifuged at 1,500 rpm for 15 minutes to make a cell pellet. The supernatant was stored frozen at −70° C. for cytokine analysis. Each cell obtained was suspended in DPBS, attached to a slide glass using a cytospin centrifuge, and Diff-Quik stained. The number of inflammatory cells in each sample was counted through microscopic examination, and the inhibition rate was calculated according to the following Equation 3.
Inhibition rate=(Value of COPD-induced group−value of target substance administered group)×100/(Value of COPD-induced group) [Equation 3]

H292 cells = experiment: Cytotoxicity (CCK-8 cell viability) of the compounds of Magnoliae flos in H292 cells; type: cell-based, human; details: 24 h, vs 0.2% DMSO control = 100%
Protocol: Then, 10 μl of the CCK-8 solution (Dojindo Laboratories, Japan) was mixed with 90 μl of the medium, and 100 μl thereof was added per well. After incubation for a minimum of 30 minutes to a maximum of 4 hours, the absorbance was measured at 570 nm. The cell viability was calculated according to the following Equation 2 with a negative control group treated with 0.2% DMSO as a reference of 100%.
Cell viability=(Compound treated OD 570 nm value)×100/(Negative control group OD 570 nm value) [Equation 2]

MUC5AC promoters = experiment: MUC5AC promoter luciferase reporter assay in H292 cells; type: cell-based, human; details: Table 7, MUC5AC promoter luciferase reporter, 10 μM, TNF-α 20 ng/mL
Excerpt: The degree of activation of luciferase was confirmed using a One-glow Luciferase Assay System (Promega).
As a result, as shown in the following Table 7, the activity of the MUC5AC promoters increased in the group treated with TNF-α.

Compound	TNF-α inhibition rate (%) (TNF-α; 15 mg/kg p.o.)	TNF-α inhibition rate (%) (TNF-α; 30 mg/kg p.o.)	rate of inhibiting reactive oxygen compared with ROF drug control group (in words) (reactive oxygen species; 15 mg/kg)	Active oxygen inhibition rate (%) (reactive oxygen species; 15 mg/kg p.o.)	Active oxygen inhibition rate (%) (reactive oxygen species; 30 mg/kg p.o.)	production of active oxygen species (in words) (reactive oxygen species)	Inhibition rate (%) (MUC5AC protein; 2.5 μM)	Inhibition rate (%) (MUC5AC protein; 5 μM)	Inhibition rate (%) (MUC5AC protein; 10 μM)	IL-6 inhibition rate (%) (IL-6; 15 mg/kg p.o.)	IL-6 inhibition rate (%) (IL-6; 30 mg/kg p.o.)	Inhibition rate of inflammatory cell infiltration (%) Macrophage ([1]; 15 mg/kg p.o.)	Inhibition rate of inflammatory cell infiltration (%) Neutrophil ([1]; 15 mg/kg p.o.)	Inhibition rate of inflammatory cell infiltration (%) Total inflammatory cells ([1]; 15 mg/kg p.o.)	Inhibition rate of inflammatory cell infiltration (%) Macrophage ([1]; 30 mg/kg p.o.)	Inhibition rate of inflammatory cell infiltration (%) Neutrophil ([1]; 30 mg/kg p.o.)	Inhibition rate of inflammatory cell infiltration (%) Total inflammatory cells ([1]; 30 mg/kg p.o.)	increase in inflammatory cells (in words) [1]	TNF-α secretion in the bronchoalveolar lavage fluid (in words) (TNF-α)	IL-6 in the bronchoalveolar lavage fluid (in words) (IL-6)	other results
COc1ccc([C@@H]2OC[C@H]3[C@@H]2CO[C@@H]3c2ccc3c(c2)OCO3)cc1OC [Compound S7, fargesin]	49.1 ± 2.6%	34.1 ± 7.1%	higher rates of inhibiting reactive oxygen than that of the drug control group treated with ROF	47.5 ± 5.2%	39.6 ± 6.9%	higher inhibition rate in the low dose groups	0.79%	1.69%	11.05%	50.8 ± 17.0%	31.4 ± 9.6%	37.1 ± 2.8%	51.7 ± 6.3%	44.1 ± 3.7%	34.8 ± 6.1%	38.2 ± 5.4%	34.1 ± 6.1%	effectively inhibited	–	–	rate of inhibiting reactive oxygen compared with ROF drug control group (in words) (reactive oxygen species; 30 mg/kg): higher rates of inhibiting reactive oxygen than that of the drug control group treated with ROF
COc1ccc([C@H]2OC[C@H]3[C@@H]2CO[C@@H]3c2ccc(OC)c(OC)c2)cc1OC [Compound S1, dimethylpinoresinol]	25.0 ± 7.8%	38.0 ± 4.1%	–	17.9 ± 5.1%	34.7 ± 3.2%	relatively higher inhibition rates in a manner depending on concentration	8.64%	26.36%	30.2%	56.2 ± 6.6%	67.6 ± 6.6%	12.8 ± 10.4%	45.9 ± 3.4%	42.2 ± 2.5%	40.0 ± 5.4%	54.5 ± 3.4%	54.3 ± 3.5%	effectively inhibited	concentration-dependent inhibition	concentration-dependent decrease	production of MUC5AC (in words) (MUC5AC protein): inhibited in a manner depending on the concentrations; production of MUC5AC (in words) (MUC5AC protein; listed as Formula 2): inhibited the production of MUC5AC in a manner depending on concentration; Viability of H292 cells (%, average ± deviation) (H292 cells; 2.5 μM): 121.27 ± 2.04%; Viability of H292 cells (%, average ± deviation) (H292 cells; 5 μM): 121.61 ± 3.75%; Viability of H292 cells (%, average ± deviation) (H292 cells; 10 μM): 118.76 ± 1.96%; Inhibition rate (%) (MUC5AC promoters): 55.74%
COc1cc([C@H]2OC[C@H]3[C@@H]2CO[C@@H]3c2ccc3c(c2)OCO3)cc(OC)c1OC [Compound S6, aschantin]	39.8 ± 10.2%	47.8 ± 4.7%	higher rates of inhibiting reactive oxygen than that of the drug control group treated with ROF	30.6 ± 7.6%	33.5 ± 6.9%	relatively higher inhibition rates in a manner depending on concentration	0.15%	4.19%	1.2%	59.3 ± 7.2%	62.9 ± 6.0%	37.8 ± 5.3%	50.7 ± 5.9%	42.8 ± 2.4%	26.0 ± 5.6%	66.3 ± 5.9%	43.7 ± 4.7%	effectively inhibited	concentration-dependent inhibition	concentration-dependent decrease	rate of inhibiting reactive oxygen compared with ROF drug control group (in words) (reactive oxygen species; 30 mg/kg): higher rates of inhibiting reactive oxygen than that of the drug control group treated with ROF
COc1ccc([C@H]2OC[C@H]3[C@@H]2CO[C@@H]3c2ccc3c(c2)OCO3)cc1OC [Compound S5, dimethoxyaschantin]	32.9 ± 4.8%	39.1 ± 1.9%	–	31.3 ± 2.5%	39.7 ± 3.5%	relatively higher inhibition rates in a manner depending on concentration	13.93%	10.12%	16.43%	36.1 ± 5.5%	48.8 ± 4.4%	28.3 ± 7.2%	44.2 ± 4.1%	33.0 ± 4.4%	37.1 ± 7.1%	53.2 ± 5.4%	43.2 ± 5.4%	–	concentration-dependent inhibition	concentration-dependent decrease	–
